pIC50: −log10 of the molar value.
The compounds below were run against T1, TNF-α (Homo sapiens, UniProt P01375) (assay: TNF-α Induced HEK Blue Cellular Assay (secreted alkaline phosphatase expression, QUANTI-Blue)). Details: HEK Blue TNFα reporter cells; TNF-α 100 μg/ml; 24 hrs at 37° C.; inhibition of secreted alkaline phosphatase; read-out: IC50 value.
T1 construct: purchased R&D 210-TA-020/CF
Assay type: cell-based
Procedure, shortened: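 HEK Blue TNFα reporter cells (10,000/well) in DMEM with 10% FBS received compound ([…] to 0.5 nM final) and TNF-α at […] final for 24 h at 37° C. Secreted alkaline phosphatase read with QUANTI-Blue at 620 nm. IC50 came from a 4-parameter logistic fit after normalising to unstimulated and stimulated DMSO controls.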

T1 sequence (P01375 77-233 limits assumed): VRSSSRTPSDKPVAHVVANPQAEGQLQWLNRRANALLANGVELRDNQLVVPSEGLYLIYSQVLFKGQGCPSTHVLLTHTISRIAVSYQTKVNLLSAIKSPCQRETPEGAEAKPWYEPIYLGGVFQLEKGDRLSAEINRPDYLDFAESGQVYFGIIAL

First: [2H]C([2H])([2H])N1C(=O)c2cccc(OC(F)F)c2[C@H]2C[C@@H]1c1nc3ccc(C#CC4(F)CN(C5COC5)C4)cc3n12 [Example 252, (7R,14R)-1-(difluoromethoxy)-11-((3-fluoro-1-(oxetan-3-yl)azetidin-3-yl)ethynyl)-6-(methyl-d3)-6,7-dihydro-7,14-methanobenzo[f]benzo[4,5]imidazo[1,2-a][1,4]diazocin-5(14H)-one]
Second: [2H]C([2H])([2H])N1C(=O)c2cccc(OC(F)F)c2[C@H]2C[C@@H]1c1nc3ccc(C#CCN4CC(F)C4)cc3n12 [Example 232, (7R,14R)-1-(difluoromethoxy)-11-(3-(3-fluoroazetidin-1-yl)prop-1-yn-1-yl)-6-(methyl-d3)-6,7-dihydro-7,14-methanobenzo[f]benzo[4,5]imidazo[1,2-a][1,4]diazocin-5(14H)-one]
The pIC50 of the first is higher: greater than 7.00 for the first, 6.00 to 7.00 for the second.

`[2H]C([2H])([2H])N1C(=O)c2cccc(OC(F)F)c2[C@H]2C[C@@H]1c1nc3ccc(C#CCC(C)O)cc3n12` (single isomer, unassigned) [Example 139, (7R,14R)-1-(difluoromethoxy)-11-((R or S)-4-hydroxypent-1-yn-1-yl)-6-(methyl-d3)-6,7-dihydro-7,14-methanobenzo[f]benzo[4,5]imidazo[1,2-a][1,4]diazocin-5(14H)-one] and `[2H]C([2H])([2H])N1C(=O)c2cccc(OC(F)F)c2[C@H]2C[C@@H]1c1nc3ccc(C#CCC(O)C(C)O)cc3n12` (single isomer, unassigned) [Example 245, (7R,14R)-1-(difluoromethoxy)-11-((4S or 4R,5S or 5R)-4,5-dihydroxyhex-1-yn-1-yl)-6-(methyl-d3)-6,7-dihydro-7,14-methanobenzo[f]benzo[4,5]imidazo[1,2-a][1,4]diazocin-5(14H)-one] cannot be ordered by pIC50: greater than 7.00 for the first, greater than 7.00 for the second.

First: [2H]C([2H])([2H])N1C(=O)c2cccc(OC(F)F)c2[C@H]2C[C@@H]1c1nc3ccc(C#CCC(=O)OC)cc3n12 [Example 138, methyl 4-((7R,14R)-1-(difluoromethoxy)-6-(methyl-d3)-5-oxo-5,6,7,14-tetrahydro-7,14-methanobenzo[f]benzo[4,5]imidazo[1,2-a][1,4]diazocin-11-yl)but-3-ynoate]
Second: [2H]C([2H])([2H])N1C(=O)c2cccc(OC(F)F)c2[C@H]2C[C@@H]1c1nc3ccc(C#CCC(C)O)cc3n12 (single isomer, unassigned) [Example 140, (7R,14R)-1-(difluoromethoxy)-11-((S or R)-4-hydroxypent-1-yn-1-yl)-6-(methyl-d3)-6,7-dihydro-7,14-methanobenzo[f]benzo[4,5]imidazo[1,2-a][1,4]diazocin-5(14H)-one]
The pIC50 of the first is lower: 4.52 to 5.00 for the first, greater than 7.00 for the second.

`[2H]C([2H])([2H])N1C(=O)c2cccc(OC(F)F)c2[C@H]2C[C@@H]1c1nc3ccc(C#CC(O)CC(F)(F)F)cc3n12` (stereo partly drawn) [Example 219, (7R,14R)-1-(difluoromethoxy)-6-(methyl-d3)-11-(5,5,5-trifluoro-3-hydroxypent-1-yn-1-yl)-6,7-dihydro-7,14-methanobenzo[f]benzo[4,5]imidazo[1,2-a][1,4]diazocin-5(14H)-one] and `[2H]C([2H])([2H])N1C(=O)c2cccc(OC(F)F)c2[C@H]2C[C@@H]1c1nc3ccc(C#CCC(F)(F)F)cc3n12` [Example 108, (7R,14R)-1-(difluoromethoxy)-6-(methyl-d3)-11-(4,4,4-trifluorobut-1-yn-1-yl)-6,7-dihydro-7,14-methanobenzo[f]benzo[4,5]imidazo[1,2-a][1,4]diazocin-5(14H)-one] cannot be ordered by pIC50: greater than 7.00 for the first, greater than 7.00 for the second.

`CCN1C(=O)c2cccc(OC(F)F)c2[C@H]2C[C@@H]1c1nc3ccc(C#Cc4cnn(C)c4)cc3n12` [Example 7, (1R,11R)-18-(difluoromethoxy)-12-ethyl-5-[2-(1-methylpyrazol-4-yl)ethynyl]-2,9,12-triazapentacyclo[9.8.1.0^{2,10}.0^{3,8}.0^{14,19}]icosa-3(8),4,6,9,14(19),15,17-heptaen-13-one] and `[2H]C([2H])([2H])N1C(=O)c2cccc(OC(F)F)c2[C@H]2C[C@@H]1c1nc3ccc(C#Cc4cnn(CCO)c4)cc3n12` [Example 10, (7R,14R)-1-(difluoromethoxy)-11-((1-(2-hydroxyethyl)-1H-pyrazol-4-yl)ethynyl)-6-(methyl-d3)-6,7-dihydro-7,14-methanobenzo[f]benzo[4,5]imidazo[1,2-a][1,4]diazocin-5(14H)-one] cannot be ordered by pIC50: greater than 7.00 for the first, greater than 7.00 for the second.

First: [2H]C([2H])([2H])N1C(=O)c2cccc(OC(F)F)c2[C@H]2C[C@@H]1c1nc3ccc(C#CC4CCNC4)cc3n12 (stereo partly drawn) [Example 71, (7R,14R)-1-(difluoromethoxy)-6-(methyl-d3)-11-(pyrrolidin-3-ylethynyl)-6,7-dihydro-7,14-methanobenzo[f]benzo[4,5]imidazo[1,2-a][1,4]diazocin-5(14H)-one]
Second: [2H]C([2H])([2H])N1C(=O)c2cccc(OC(F)F)c2[C@H]2C[C@@H]1c1nc3ccc(C#CC4CCCN(C(C)=O)C4)cc3n12 (stereo partly drawn) [Example 183, (7R,14R)-11-((1-acetylpiperidin-3-yl)ethynyl)-1-(difluoromethoxy)-6-(methyl-d3)-6,7-dihydro-7,14-methanobenzo[f]benzo[4,5]imidazo[1,2-a][1,4]diazocin-5(14H)-one]
The pIC50 of the first is lower: 6.00 to 7.00 for the first, greater than 7.00 for the second.

First: [2H]C([2H])([2H])N1C(=O)c2cccc(OC(F)F)c2[C@H]2C[C@@H]1c1nc3ccc(C#CCCO)cc3n12 [Example 111, (7R,14R)-1-(difluoromethoxy)-11-(4-hydroxybut-1-yn-1-yl)-6-(methyl-d3)-6,7-dihydro-7,14-methanobenzo[f]benzo[4,5]imidazo[1,2-a][1,4]diazocin-5(14H)-one]
Second: [2H]C([2H])([2H])N1C(=O)c2cccc(OC(F)F)c2[C@H]2C[C@@H]1c1nc3ccc(C#CCCC(=O)O)cc3n12 [Example 104, 5-((7R,14R)-1-(difluoromethoxy)-6-(methyl-d3)-5-oxo-5,6,7,14-tetrahydro-7,14-methanobenzo[f]benzo[4,5]imidazo[1,2-a][1,4]diazocin-11-yl)pent-4-ynoic Acid]
The pIC50 of the first is higher: greater than 7.00 for the first, 4.52 to 5.00 for the second.

`[2H]C([2H])([2H])N1C(=O)c2cccc(OC(F)F)c2[C@H]2C[C@@H]1c1nc3ccc(C#Cc4cncnc4)cc3n12` [Example 11, (7R,14R)-1-(difluoromethoxy)-6-(methyl-d3)-11-(pyrimidin-5-ylethynyl)-6,7-dihydro-7,14-methanobenzo[f]benzo[4,5]imidazo[1,2-a][1,4]diazocin-5(14H)-one] and `[2H]C([2H])([2H])N1C(=O)c2cccc(OC(F)F)c2[C@H]2C[C@@H]1c1nc3ccc(C#Cc4cnc(N)nc4)cc3n12` [Example 249, (7R,14R)-11-((2-aminopyrimidin-5-yl)ethynyl)-1-(difluoromethoxy)-6-(methyl-d3)-6,7-dihydro-7,14-methanobenzo[f]benzo[4,5]imidazo[1,2-a][1,4]diazocin-5(14H)-one] cannot be ordered by pIC50: greater than 7.00 for the first, greater than 7.00 for the second.

`[2H]C([2H])([2H])N1C(=O)c2cccc(OC(F)F)c2[C@H]2C[C@@H]1c1nc3ccc(C#CCCN4CCN(C)CC4)cc3n12` [Example 134, (7R,14R)-1-(difluoromethoxy)-6-(methyl-d3)-11-(4-(4-methylpiperazin-1-yl)but-1-yn-1-yl)-6,7-dihydro-7,14-methanobenzo[f]benzo[4,5]imidazo[1,2-a][1,4]diazocin-5(14H)-one] and `[2H]C([2H])([2H])N1C(=O)c2cccc(OC(F)F)c2[C@H]2C[C@@H]1c1nc3ccc(C#CCCN4CCOCC4)cc3n12` [Example 101, (7R,14R)-1-(difluoromethoxy)-6-(methyl-d3)-11-(4-morpholinobut-1-yn-1-yl)-6,7-dihydro-7,14-methanobenzo[f]benzo[4,5]imidazo[1,2-a][1,4]diazocin-5(14H)-one] cannot be ordered by pIC50: greater than 7.00 for the first, greater than 7.00 for the second.

First: [2H]C([2H])([2H])N1C(=O)c2cccc(OC(F)F)c2[C@H]2C[C@@H]1c1nc3ccc(C#Cc4nnc(C)s4)cc3n12 [Example 29, (7R,14R)-1-(difluoromethoxy)-6-(methyl-d3)-11-((5-methyl-1,3,4-thiadiazol-2-yl)ethynyl)-6,7-dihydro-7,14-methanobenzo[f]benzo[4,5]imidazo[1,2-a][1,4]diazocin-5(14H)-one]
Second: [2H]C([2H])([2H])N1C(=O)c2cccc(OC(F)F)c2[C@H]2C[C@@H]1c1nc3ccc(C#CC(C)(C)N)cc3n12 [Example 64, (7R,14R)-11-(3-amino-3-methylbut-1-yn-1-yl)-1-(difluoromethoxy)-6-(methyl-d3)-6,7-dihydro-7,14-methanobenzo[f]benzo[4,5]imidazo[1,2-a][1,4]diazocin-5(14H)-one]
The pIC50 of the first is higher: greater than 7.00 for the first, 4.52 to 5.00 for the second.

First: [2H]C([2H])([2H])N1C(=O)c2cccc(OC(F)F)c2[C@H]2C[C@@H]1c1nc3ccc(C#CCCC#N)cc3n12 [Example 87, 5-((7R,14R)-1-(difluoromethoxy)-6-(methyl-d3)-5-oxo-5,6,7,14-tetrahydro-7,14-methanobenzo[f]benzo[4,5]imidazo[1,2-a][1,4]diazocin-11-yl)pent-4-ynenitrile]
Second: [2H]C([2H])([2H])N1C(=O)c2cccc(OC(F)F)c2[C@H]2C[C@@H]1c1nc3ccc(C#CC4(C)CCN(C(=O)C(C)(C)C)C4)cc3n12 (stereo partly drawn) [Example 190, (7R,14R)-1-(difluoromethoxy)-6-(methyl-d3)-11-((3-methyl-1-pivaloylpyrrolidin-3-yl)ethynyl)-6,7-dihydro-7,14-methanobenzo[f]benzo[4,5]imidazo[1,2-a][1,4]diazocin-5(14H)-one]
The pIC50 of the first is higher: greater than 7.00 for the first, 6.00 to 7.00 for the second. The first is the more potent here.

Same assay, conditions: IC50 value, HEK Blue TNFα reporter cells; TNF-α 100 μg/ml; 24 hrs at 37° C.; inhibition of secreted alkaline phosphatase

Work on `[2H]C([2H])([2H])N1C(=O)c2cccc(OC(F)F)c2[C@H]2C[C@@H]1c1nc3ccc(C#CCNC4COC4)cc3n12` [Example 242, (7R,14R)-1-(difluoromethoxy)-6-(methyl-d3)-11-(3-(oxetan-3-ylamino)prop-1-yn-1-yl)-6,7-dihydro-7,14-methanobenzo[f]benzo[4,5]imidazo[1,2-a][1,4]diazocin-5(14H)-one] yielded a pIC50 greater than 7.00.

— patent US20260365682A1, “MODULATORS OF TNF-ALPHA ACTIVITY” (Forward Therapeutics, Inc., priority 2022, published 2026)
